Data reported in US7935709B2, “2-quinazolinone compounds and methods of use” (Amgen Inc., priority 2006, dated 2011).

What was measured:
[1] = tested on: TNF-α secretion by THP1 cells; test: Lipopolysaccharide-Activated THP1 Cell TNF Production Assay (THP-cellular TNF release assay); type: cell-based; conditions: Homo sapiens, THP-1, LPS-activated THP1 cells
Method: Lipopolysaccharide-Activated THP1 Cell TNF Production Assay
THP1 cells are re-suspended in fresh THP1 media (RPMI 1640, 10% heat-inactivated FBS, 1XPGS, 1XNEM, plus 30 μM βME) at a concentration of 1E6/mL. One hundred microliters of cells per well were plated in a polystyrene 96-well tissue culture. One microgram per mL of bacterial LPS is prepared in THP1 media and is transferred to the wells. Test compounds are dissolved in 100% DMSO and are serially diluted 3 fold in a polypropylene 96-well microtiter plate (drug plate). HI control and LO control wells contain only DMSO. One microliter of test compound from the drug plate followed by 10 μL of LPS were transferred to the cell plate. The treated cells are induced to synthesize and secrete TNF-α at 37° C. for 3 h. Forty microliters of conditioned media are transferred to a 96-well polypropylene plate containing 110 μL of ECL buffer (50 mM Tris-HCl pH 8.0, 100 mM NaCl, 0.05% Tween 20, 0.05% NaN3 and 1% FBS) supplemented with 0.44 nM MAB610 monoclonal Ab (R&D Systems), 0.34 nM ruthenylated AF210NA polyclonal Ab (R&D Systems) and 44 μg/mL sheep anti-mouse M280 Dynabeads (Dynal). After a 2 h incubation at room temperature with shaking, the reaction is read on the ECL M8 Instrument (IGEN Inc.). A low voltage is applied to the ruthenylated TNF-α immune complexes, which in the presence of TPA (the active component in Origlo), results in a cyclical redox reaction generating light at […]. The amount of secreted TNF-αin the presence of compound compared with that in the presence of DMSO vehicle alone (HI control) is calculated using the formula: % control (POC)=(cpd−average LO)/(average HI−average LO)*100. Data (consisting of POC and inhibitor concentration in μM) is fitted to a 4-parameter equation (y=A+((B−A)/(1+((x/C)^D))), where A is the minimum y (POC) value, B is the maximum y (POC), C is the x (cpd concentration) at the point of inflection and D is the slope factor) using a Levenburg-Marquardt non-linear regression algorithm.

[2] = tested on: TNF production by monocytes; test: Lipopolysaccharide-Activated Monocyte TNF Production Assay (LPS induced TNF release); type: cell-based; conditions: Homo sapiens, LPS-activated adherent monocytes from PBMCs
Method: Lipopolysaccharide-Activated Monocyte TNF Production Assay
Test compounds were evaluated in vitro for the ability to inhibit the production of TNF by monocytes activated with bacterial lipopolysaccharide (LPS). Fresh residual source leukocytes (a byproduct of plateletpheresis) were obtained from a local blood bank, and peripheral blood mononuclear cells (PBMCs) were isolated by density gradient centrifugation on Ficol-Paque Plus (Pharmacia). PBMCs were suspended at 2×10^6/mL in DMEM supplemented to contain 2% FCS, 10 mM, 0.3 mg/mL […], 100 U/mL penicillin G and […] streptomycin sulfate (complete media). Cells were plated into Falcon flat bottom, 96 well culture plates (200 μL/well) and cultured overnight at 37° C. and 6% CO2. Non-adherent cells were removed by washing with 200 μl/well of fresh medium. Wells containing adherent cells (˜70% monocytes) were replenished with 100 μL of fresh medium.
Preparation of Test Compound Stock Solutions
Test compounds were dissolved in […]. Compound stock solutions were prepared to an initial concentration of […]. Stocks were diluted initially to 20-200 μM in complete media. Nine two-fold serial dilutions of each compound were then prepared in complete medium. Treatment of cells with test compounds and activation of TNF production with lipopolysaccharide.
One hundred microliters of each test compound dilution were added to microtiter wells containing adherent monocytes and 100 μL complete medium. Monocytes were cultured with test compounds for 60 min at which time 25 μL of complete medium containing 30 ng/mL lipopolysaccharide from E. coli K532 were added to each well. Cells were cultured an additional 4 hrs. Culture supernatants were then removed and TNF presence in the supernatants was quantified using an ELISA.
Flat bottom, 96 well Corning High Binding ELISA plates were coated overnight (4° C.) with 150 μL/well of 3 μg/mL murine anti-human TNF-α MAb (R&D Systems #MAB210). Wells were then blocked for 1 h at room temperature with 200 μL/well of CaCl2-free ELISA buffer supplemented to contain 20 mg/mL BSA (standard ELISA buffer: […], 150 mM NaCl, 2 mM CaCl2, 0.15 mM thimerosal, pH 7.4). Plates were washed and replenished with 100 μL of test supernatants (diluted 1:3) or standards. Standards consisted of eleven 1.5-fold serial dilutions from a stock of 1 ng/mL recombinant human TNF (R&D Systems). Plates were incubated at room temperature for 1 h on orbital shaker (300 rpm), washed and replenished with 100 μL/well of 0.5 μg/mL goat anti-human TNF-α(R&D systems #AB-210-NA) biotinylated at a 4:1 ratio. Plates were incubated for 40 min, washed and replenished with 100 μL/well of alkaline phosphatase-conjugated streptavidin (Jackson ImmunoResearch #016-050-084) at 0.02 μg/mL. Plates were incubated 30 min, washed and replenished with 200 μL/well of 1 mg/mL of p-nitrophenyl phosphate. After 30 min, plates were read at 405 nm on a Vmax plate reader.
Standard curve data were fit to a second order polynomial and unknown TNF-α concentrations determined from their OD by solving this equation for concentration. TNF concentrations were then plotted vs. test compound concentration using a second order polynomial. This equation was then used to calculate the concentration of test compounds causing a 50% reduction in TNF production.

IC50 [1] [µM] | IC50 [2] [µM] | Compound
≤ 2.5 | ≤ 25 | O=c1ncc2cc(Cl)ccc2n1Cc1ccccc1 [Example 1, 1-Benzyl-6-chloroquinazolin-2-(1H)-one]
≤ 2.5 | ≤ 25 | COc1ccc(CN2Cc3cc(-c4cc(C(=O)NC5CC5)ccc4C)ccc3NC2=O)cc1 [Example 2, 3-(3-(4-Methoxybenzyl)-2-oxo-1,2,3,4-tetrahydroquinazolin-6-yl)-N-cyclopropyl-4-methylbenzamide]
– | ≤ 25 | Cc1ccc(C(=O)NC2CC2)cc1-c1ccc2c(cnc(=O)n2-c2ccccc2Cl)c1 [Example 3]
≤ 2.5 | ≤ 25 | Cc1ccncc1-c1ccc2c(c1)CNC(=O)N2c1ccccc1Cl [Example 4, 1-(2-Chlorophenyl)-6-(4-methylpyridin-3-yl)-3,4-dihydroquinazolin-2(1H)-one]
– | ≤ 25 | Cc1ccc(C(=O)NC2CC2)cc1-c1ccc2c(c1)CNC(=O)N2c1ccccc1C [Example 5, N-Cyclopropyl-4-methyl-3-(2-oxo-1-o-tolyl-1,2,3,4-tetrahydroquinazolin-6-yl)benzamide]
– | ≤ 25 | Cc1ccc(C(=O)NC2CC2)cc1-c1ccc2c(cnc(=O)n2-c2ccccc2C)c1 [Example 6, N-Cyclopropyl-4-methyl-3-(2-oxo-1-o-tolyl-1,2-dihydroquinazolin-6-yl)benzamide]
– | ≤ 25 | Cc1ccc(C(=O)NC2CC2)cc1-c1ccc2c(cnc(=O)n2CCN2CCOCC2)c1 [Example 8, N-Cyclopropyl-4-methyl-3-(1-(2-morpholinoethyl)-2-oxo-1,2-dihydroquinazolin-6-yl)benzamide]
– | ≤ 25 | Cc1ccc(C(=O)NC2CC2)cc1-c1ccc2c(cnc(=O)n2C2CCN(C(=O)OC(C)(C)C)CC2)c1 [Example 10, tert-Butyl 4-(6-(5-(cyclopropylcarbamoyl)-2-methylphenyl)-2-oxoquinazolin-1(2H)-yl)piperidine-1-carboxylate]
– | ≤ 25 | Cc1ccc(C(=O)NC2CC2)cc1-c1ccc2c(c1)CNC(=O)N2c1ccccc1Cl [Example 11, 3-(1-(2-chlorophenyl)-2-oxo-1,2,3,4-tetrahydro-6-quinazolinyl)-N-cyclopropyl-4-methylbenzamide]
≤ 2.5 | ≤ 25 | Cc1ccc(C(=O)NC2CC2)cc1-c1cnc2c(c1)CNC(=O)N2c1ccccc1Cl [Example 12, 3-(1-(2-chlorophenyl)-2-oxo-1,2,3,4-tetrahydropyrido[2,3-d]pyrimidin-6-yl)-N-cyclopropyl-4-methylbenzamide]
– | ≤ 25 | Cc1ccc(C(=O)NC2CC2)cc1-c1ccc2c(cnc(=O)n2C2CCOCC2)c1 [Example 13, N-cyclopropyl-4-methyl-3-(2-oxo-1-(tetrahydro-2H-pyran-4-yl)-1,2-dihydro-6-quinazolinyl)benzamide]
